Test in all cases: Postemergence herbicidal activity, greenhouse trial (visual injury 0-100%)
Common to all, as to assay type: in vivo

In assay [1] the test system is blackgrass (Alopecurus myosuroides, ALOMY). A digest of the protocol: (§1)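 Greenhouse postemergence test, ~23 °C day, 22 °C night. Two-way combinations were sprayed at 187 L/ha in 1.5% v/v crop oil concentrate, and percent injury was scored visually after 20-22 d.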
The test system of assay [2] is grain sorghum (Sorghum vulgare, SORVU). A digest of the protocol:
as §1

Assay [3] concerns soybean (Glycine max, GLXMA). Here is the method:
(§2) Seeds of the desired test plant species were planted in Sun Gro MetroMix® 306 planting mixture, which typically has a pH of 6.0 to 6.8 and an organic matter content of about 30 percent, in plastic pots with a surface area of 103.2 square centimeters (cm^2). […] The plants were grown for 7-36 days (d) in a greenhouse with an approximate 14-hour (h) photoperiod which was maintained at about 23° C. during the day and 22° C. during the night. Nutrients and water were added on a regular basis and supplemental lighting was provided with overhead metal halide 1000-Watt lamps as necessary. The plants were employed for testing when they reached the second or third true leaf stage.
(§3) Weighed amounts of technical material were dissolved in a volume of 97:3 volume per volume (v/v) acetone/dimethyl sulfoxide (DMSO) to stock solutions. […] The concentrated stock solutions were diluted with an aqueous mixture of 1.5% v/v of Agri-dex crop oil concentrate to provide the appropriate application rates. Compound requirements are based upon a 12 milliliter (mL) application volume at a rate of 187 liters per hectare (L/ha). Spray solutions of the experimental compound mixtures were prepared by adding the stock solutions to the appropriate amount of dilution solution to form a 12 mL spray solution in two-way combinations. Formulated compounds were applied to the plant material with an overhead Mandel track sprayer equipped with 8002E nozzles calibrated to deliver 187 L/ha over an application area of 0.503 square meters (m^2) at a spray height of 18 inches (43 centimeters (cm)) above average plant canopy. Control plants were sprayed in the same manner with the solvent blank. Application rates for component (a) are in g ae/ha, and application rates for component (b) are in g ai/ha.
(§4) The treated plants and control plants were placed in a greenhouse as described above and watered by sub-irrigation to prevent wash-off of the test compounds. After 20-22 d, the condition of the test plants as compared with that of the control plants was determined visually and scored on a scale of 0 to 100 percent where 0 corresponds to no injury and 100 corresponds to complete kill. The condition of the test plants was compared with that of the control plants as determined visually and scored on a scale of 0 to 100 percent, where 0 corresponds to no injury and 100 corresponds to complete kill. Colby's equation was used to determine the herbicidal effects expected from the mixtures.
(§5) Compound 1 was formulated as an EC and was combined with imazamox, imazamethabenz, imazapic, imazapyr or imazethapyr. The mixtures were applied to winter wheat (TRZAW) and/or maize (ZEAMX), and the phytotoxicity of the herbicidal compositions was measured. In addition, the efficacy of the herbicidal compositions on blackgrass (Alopecurus myosuroides, ALOMY), wild oat (Avena fatua, AVEFA), winter rape (Brassica napus, BRSNW), spring rape (Brassica napus, BRSNN), turnip (Brassica rapa, BRSRR), thistle (Cirsium arvense, CIRAR), large crabgrass (Digitaria sanguinalis, DIGSA), pigweed (Amaranthus retrollexus, AMARE), common lambsquarters (Chenopodium album L., CHEAL), poinsettia (Euphorbia heterophylla, EPHHL), ivyleaf morning-glory (Ipomoea hederacea, IPOHE), kochia (Kochia scoparia, KCHSC), wild buckwheat (Polygonum convolvulus, POLCO), grain sorghum (Sorghum vulgare, SORVU), chickweed (Stellaria media, STEME), wild pansy (Viola tricolor, VIOTR), sunflower (Helianthus annuus, HELAN), giant foxtail (Setaria faberi, SETFA), soybean (Glycine max, GLXMA), rutabaga (Brassica napus var. napobrassica, BRSNA) and barnyardgrass (Echinochloa crus-galli, ECHCG) was evaluated.

For assay [4], the system named is turnip (Brassica rapa, BRSRR). The note with it: 5 g ae/ha. The protocol: as §2, §3, §4, §5
For assay [5], the system named is rutabaga (Brassica napus var. napobrassica, BRSNA). The note with it: 5 g ae/ha. Here is the method: as §2, §3, §4, §5
For assay [6], the system named is winter rape (Brassica napus, BRSNW).
For assay [7], the system named is large crabgrass (Digitaria sanguinalis, DIGSA).

Values joined by “and” are separate entries in the source; they are usually repeats but may differ in a detail not shown here. Equal values may be shown once.

For `Nc1c(F)c(-c2ccc3cc[nH]c3c2F)nc(C(=O)O)c1Cl` [Compound 1], the “% visual injury Obs” value was 0% in assay [1] (5 g ae/ha); 0% in assay [1] (10 g ae/ha); 0% in assay [1] (ALOMY, Compound 1 5 g ae/ha); 0% in assay [1] (ALOMY, Compound 1 10 g ae/ha); 10% and 0% in assay [2] (5 g ae/ha); 50% in assay [2] (10 g ae/ha). Moreover, the “% visual injury Obs” value is 0% and 10% in assay [2] (SORVU, Compound 1 5 g ae/ha); 50% in assay [2] (SORVU, Compound 1 10 g ae/ha); 95% in assay [3] (5 g ae/ha); 100% in assay [3] (10 g ae/ha); 50% in assay [4]; 65% in assay [5]. Further, the “% visual injury Obs” value in assay [6] (5 g ae/ha) was 30% and 40%; in assay [6] (10 g ae/ha) it was 45%; in assay [6] (BRSNW, Compound 1 5 g ae/ha), 50% and 40%; in assay [6] (BRSNW, Compound 1 10 g ae/ha), 45%; in assay [7] (5 g ae/ha), 5% and 0%; in assay [7] (10 g ae/ha) it was 10%.
